Converted amounts (≈) assume the structure as drawn.

The first test deals with Enterococcus faecalis. Put plainly: Antibacterial activity against Enterococcus faecalis measured after 20 to 45 mins by broth microdilution method. The test is classed as functional. Conditions: time 20-45 min.
Turning to `O=C(O)c1cn(C2CC2)c2cc(N3CCNCC3)c(F)cc2c1=O` [CIPROFLOXACIN], the MIC is 1.6 µg/mL (≈ 4.83 µM).
The compound `CC1=C[C@@H]2/C=C(\C)CC[C@@H](O)[C@@H](O)[C@H](O)CC(=O)[C@]23C(=O)N[C@@H](CC(C)C)[C@@H]3[C@@H]1C` displayed an MIC greater than 25 µg/mL.
On the same count and under the same terms, the result for `CC1=C[C@@H]2/C=C(\C)CC[C@H](O)[C@H](O)/C=C/C(=O)O[C@]23C(=O)N[C@@H](CC(C)C)[C@@H]3[C@@H]1C` [ASPOCHALASIN I] reads greater than 25 µg/mL; that for `CC1=C[C@@H]2/C=C(\C)CCC(=O)[C@@H](O)/C=C/C(=O)[C@]23C(=O)N[C@@H](CC(C)C)[C@@H]3[C@@H]1C`, greater than 25 µg/mL.

The test system of the next test is A2780. Put plainly: Cytotoxicity against human A2780 cells by MTT assay. The test is classed as functional, cell-based.
Conditions: not given
In the case of `CC1=C[C@@H]2/C=C(\C)CC[C@@H](O)[C@@H](O)[C@H](O)CC(=O)[C@]23C(=O)N[C@@H](CC(C)C)[C@@H]3[C@@H]1C`, the IC50 was greater than 20 µM.
Same read-out and setting: the result for `CC1=C[C@@H]2/C=C(\C)CC[C@H](O)[C@H](O)/C=C/C(=O)O[C@]23C(=O)N[C@@H](CC(C)C)[C@@H]3[C@@H]1C` [ASPOCHALASIN I] reads greater than 20 µM; that for `CC1=C[C@@H]2/C=C(\C)CCC(=O)[C@@H](O)/C=C/C(=O)[C@]23C(=O)N[C@@H](CC(C)C)[C@@H]3[C@@H]1C`, greater than 20 µM.

In another test the test system is Vibrio parahaemolyticus. As to the kind of experiment: Antibacterial activity against Vibrio parahaemolyticus measured after 20 to 45 mins by broth microdilution method. The test is classed as functional. The settings on record: time 20-45 min.
Regarding `O=C(O)c1cn(C2CC2)c2cc(N3CCNCC3)c(F)cc2c1=O` [CIPROFLOXACIN], it took 3.1 µg/mL (≈ 9.36 µM) to inhibit growth (MIC).
On the same count and under the same terms, the result for `CC1=C[C@@H]2/C=C(\C)CC[C@@H](O)[C@@H](O)[C@H](O)CC(=O)[C@]23C(=O)N[C@@H](CC(C)C)[C@@H]3[C@@H]1C` reads greater than 25 µg/mL; that for `CC1=C[C@@H]2/C=C(\C)CC[C@H](O)[C@H](O)/C=C/C(=O)O[C@]23C(=O)N[C@@H](CC(C)C)[C@@H]3[C@@H]1C` [ASPOCHALASIN I], greater than 25 µg/mL; that for `CC1=C[C@@H]2/C=C(\C)CCC(=O)[C@@H](O)/C=C/C(=O)[C@]23C(=O)N[C@@H](CC(C)C)[C@@H]3[C@@H]1C`, greater than 25 µg/mL.

A further test has as its system Bacillus subtilis. Put plainly: Antibacterial activity against Bacillus subtilis measured after 20 to 45 mins by broth microdilution method. The settings on record: time 20-45 min. The test is classed as functional.
In turn, `O=C(O)c1cn(C2CC2)c2cc(N3CCNCC3)c(F)cc2c1=O` [CIPROFLOXACIN] displayed an MIC of 1.6 µg/mL (≈ 4.83 µM).
On the same count and under the same terms, the result for `CC1=C[C@@H]2/C=C(\C)CC[C@@H](O)[C@@H](O)[C@H](O)CC(=O)[C@]23C(=O)N[C@@H](CC(C)C)[C@@H]3[C@@H]1C` reads greater than 25 µg/mL; that for `CC1=C[C@@H]2/C=C(\C)CC[C@H](O)[C@H](O)/C=C/C(=O)O[C@]23C(=O)N[C@@H](CC(C)C)[C@@H]3[C@@H]1C` [ASPOCHALASIN I], greater than 25 µg/mL; that for `CC1=C[C@@H]2/C=C(\C)CCC(=O)[C@@H](O)/C=C/C(=O)[C@]23C(=O)N[C@@H](CC(C)C)[C@@H]3[C@@H]1C`, greater than 25 µg/mL.

In another test the test system is HepG2. Put plainly: Cytotoxicity against human HepG2 cells by MTT assay. It is filed as functional, cell-based.
Conditions: not given
`CC1=C[C@@H]2/C=C(\C)CC[C@@H](O)[C@@H](O)[C@H](O)CC(=O)[C@]23C(=O)N[C@@H](CC(C)C)[C@@H]3[C@@H]1C` yielded an IC50 greater than 20 µM.
Turning to `CC1=C[C@@H]2/C=C(\C)CC[C@H](O)[C@H](O)/C=C/C(=O)O[C@]23C(=O)N[C@@H](CC(C)C)[C@@H]3[C@@H]1C` [ASPOCHALASIN I], the IC50 was greater than 20 µM.
On the same count and under the same terms, the same measure for `CC1=C[C@@H]2/C=C(\C)CCC(=O)[C@@H](O)/C=C/C(=O)[C@]23C(=O)N[C@@H](CC(C)C)[C@@H]3[C@@H]1C`: greater than 20 µM.

The subject of the next test is Salmonella typhi. Put plainly: Antibacterial activity against Salmonella typhi measured after 20 to 45 mins by broth microdilution method. The test is classed as functional, Salmonella enterica subsp. enterica serovar Typhi. The settings on record: Salmonella enterica; time 20-45 min.
`O=C(O)c1cn(C2CC2)c2cc(N3CCNCC3)c(F)cc2c1=O` [CIPROFLOXACIN] came in with an MIC of 1.6 µg/mL (≈ 4.83 µM).
On the same count and under the same terms, the same measure for `CC1=C[C@@H]2/C=C(\C)CC[C@@H](O)[C@@H](O)[C@H](O)CC(=O)[C@]23C(=O)N[C@@H](CC(C)C)[C@@H]3[C@@H]1C`: greater than 25 µg/mL; for `CC1=C[C@@H]2/C=C(\C)CC[C@H](O)[C@H](O)/C=C/C(=O)O[C@]23C(=O)N[C@@H](CC(C)C)[C@@H]3[C@@H]1C` [ASPOCHALASIN I]: greater than 25 µg/mL.
`CC1=C[C@@H]2/C=C(\C)CCC(=O)[C@@H](O)/C=C/C(=O)[C@]23C(=O)N[C@@H](CC(C)C)[C@@H]3[C@@H]1C` returned an MIC greater than 25 µg/mL.

The next test relates to HeLa. Put plainly: Cytotoxicity against human HeLa cells by MTT assay. It is filed as functional, cell-based.
Conditions: not given
Compound `CC1=C[C@@H]2/C=C(\C)CC[C@@H](O)[C@@H](O)[C@H](O)CC(=O)[C@]23C(=O)N[C@@H](CC(C)C)[C@@H]3[C@@H]1C` gave an IC50 greater than 20 µM.
Same read-out and setting: the same measure for `CC1=C[C@@H]2/C=C(\C)CC[C@H](O)[C@H](O)/C=C/C(=O)O[C@]23C(=O)N[C@@H](CC(C)C)[C@@H]3[C@@H]1C` [ASPOCHALASIN I]: greater than 20 µM; for `CC1=C[C@@H]2/C=C(\C)CCC(=O)[C@@H](O)/C=C/C(=O)[C@]23C(=O)N[C@@H](CC(C)C)[C@@H]3[C@@H]1C`: greater than 20 µM.

The test system of a further test is Shigella dysenteriae. As to the kind of experiment: Antibacterial activity against Shigella dysenteriae measured after 20 to 45 mins by broth microdilution method. The settings on record: time 20-45 min. The test is classed as functional.
Compound `O=C(O)c1cn(C2CC2)c2cc(N3CCNCC3)c(F)cc2c1=O` [CIPROFLOXACIN] displayed a minimum inhibitory concentration (MIC) of 1.6 µg/mL (≈ 4.83 µM).
Same read-out and setting: the same measure for `CC1=C[C@@H]2/C=C(\C)CC[C@@H](O)[C@@H](O)[C@H](O)CC(=O)[C@]23C(=O)N[C@@H](CC(C)C)[C@@H]3[C@@H]1C`: greater than 25 µg/mL; for `CC1=C[C@@H]2/C=C(\C)CC[C@H](O)[C@H](O)/C=C/C(=O)O[C@]23C(=O)N[C@@H](CC(C)C)[C@@H]3[C@@H]1C` [ASPOCHALASIN I]: greater than 25 µg/mL; for `CC1=C[C@@H]2/C=C(\C)CCC(=O)[C@@H](O)/C=C/C(=O)[C@]23C(=O)N[C@@H](CC(C)C)[C@@H]3[C@@H]1C`: greater than 25 µg/mL.

The next test relates to Escherichia coli. As to the kind of experiment: Antibacterial activity against Escherichia coli measured after 20 to 45 mins by broth microdilution method. The test is classed as functional. The settings on record: time 20-45 min.
For the compound `O=C(O)c1cn(C2CC2)c2cc(N3CCNCC3)c(F)cc2c1=O` [CIPROFLOXACIN], 1.6 µg/mL (≈ 4.83 µM) was the least that counted as inhibitory (MIC).
Same read-out and setting: the same measure for `CC1=C[C@@H]2/C=C(\C)CC[C@@H](O)[C@@H](O)[C@H](O)CC(=O)[C@]23C(=O)N[C@@H](CC(C)C)[C@@H]3[C@@H]1C`: greater than 25 µg/mL; for `CC1=C[C@@H]2/C=C(\C)CC[C@H](O)[C@H](O)/C=C/C(=O)O[C@]23C(=O)N[C@@H](CC(C)C)[C@@H]3[C@@H]1C` [ASPOCHALASIN I]: greater than 25 µg/mL.
Still for that read-out and setting: the result for `CC1=C[C@@H]2/C=C(\C)CCC(=O)[C@@H](O)/C=C/C(=O)[C@]23C(=O)N[C@@H](CC(C)C)[C@@H]3[C@@H]1C` reads greater than 25 µg/mL.

Another test deals with SK-OV-3. As to the kind of experiment: Cytotoxicity against human SK-OV-3 cells by MTT assay. It is filed as functional, cell-based.
Conditions: not given
Turning to `CC1=C[C@@H]2/C=C(\C)CC[C@@H](O)[C@@H](O)[C@H](O)CC(=O)[C@]23C(=O)N[C@@H](CC(C)C)[C@@H]3[C@@H]1C`, the IC50 was greater than 20 µM.
The same measure, in the same setting: the result for `CC1=C[C@@H]2/C=C(\C)CC[C@H](O)[C@H](O)/C=C/C(=O)O[C@]23C(=O)N[C@@H](CC(C)C)[C@@H]3[C@@H]1C` [ASPOCHALASIN I] reads greater than 20 µM; that for `CC1=C[C@@H]2/C=C(\C)CCC(=O)[C@@H](O)/C=C/C(=O)[C@]23C(=O)N[C@@H](CC(C)C)[C@@H]3[C@@H]1C`, greater than 20 µM.

A further test deals with Staphylococcus aureus. As to the kind of experiment: Antibacterial activity against Staphylococcus aureus measured after 20 to 45 mins by broth microdilution method. It is filed as functional. Conditions: time 20-45 min.
In turn, `O=C(O)c1cn(C2CC2)c2cc(N3CCNCC3)c(F)cc2c1=O` [CIPROFLOXACIN] came in with an MIC of 1.6 µg/mL (≈ 4.83 µM).
The same measure, in the same setting: the same measure for `CC1=C[C@@H]2/C=C(\C)CC[C@@H](O)[C@@H](O)[C@H](O)CC(=O)[C@]23C(=O)N[C@@H](CC(C)C)[C@@H]3[C@@H]1C`: greater than 25 µg/mL.
Still for that read-out and setting: the same measure for `CC1=C[C@@H]2/C=C(\C)CC[C@H](O)[C@H](O)/C=C/C(=O)O[C@]23C(=O)N[C@@H](CC(C)C)[C@@H]3[C@@H]1C` [ASPOCHALASIN I]: greater than 25 µg/mL.
The same measure, in the same setting: the same measure for `CC1=C[C@@H]2/C=C(\C)CCC(=O)[C@@H](O)/C=C/C(=O)[C@]23C(=O)N[C@@H](CC(C)C)[C@@H]3[C@@H]1C`: greater than 25 µg/mL.
